Patent US20170044104A1, “NEW PESTICIDAL COMPOUNDS AND USES” (BAYER CROPSCIENCE AG, priority 2013, published 2017)

What was measured:
[1] = test system: Dirofilaria immitis microfilariae; experiment: microbe, parasite or virus in culture; details: 72 h, read-out: EC50 (reduction of motility)
[2] = test system: Cooperia curticei; experiment: Cooperia curticei (COOPCU) larval mortality assay; details: 120 h, application rate 20 ppm, after 5 days, read-out: activity (percentage of larval mortality)
Procedure: (§1) Solvent: dimethyl sulfoxide
(§2) To produce a suitable preparation of active compound, 10 mg of active compound are dissolved in 0.5 ml solvent, and the concentrate is diluted with “Ringer's solution” to the desired concentration.
Approximately 40 nematode larvae (Cooperia curticei) are transferred into a test tube containing the compound solution.
After 5 days percentage of larval mortality is recorded. 100% efficacy means all larvae are killed; 0% efficacy means no larvae are killed.

[3] = test system: Meloidogyne incognita; experiment: Meloidogyne incognita (MELGIN) gall formation assay; assay type: in vivo; details: 336 h, read-out: nematicidal activity (percentage of gall formation)
Procedure: Solvent: 125.0 parts by weight of acetone
To produce a suitable preparation of active compound, 1 part by weight of active compound is mixed with the stated amount of solvent, and the concentrate is diluted with water to the desired concentration.
Vessels are filled with sand, a solution of the active ingredient, a suspension containing eggs and larvae of the southern root-knot nematode (Meloidogyne incognita) and salad seeds. The salad seeds germinate and the seedlings grow. Galls develop in the roots.
After 14 days the nematicidal activity is determined on the basis of the percentage of gall formation. 100% means no galls were found and 0% means the number of galls found on the roots of the treated plants was equal to that in untreated control plants.

[4] = test system: Haemonchus contortus; experiment: Haemonchus contortus (HAEMCO) larval mortality assay; details: 120 h; for mortality at 20 ppm: application rate 20 ppm, after 5 days, read-out: activity (percentage of larval mortality); for Emax at 0.8 ppm / Emax at 4 ppm / Emax at 20 ppm: comparative test, 5 dat, read-out: % Efficacy
Procedure: as §1, §2
Approximately 40 larvae of the red stomach worm (Haemonchus contortus) are transferred into a test tube containing compound solution.
After 5 days percentage of larval mortality are recorded. 100% efficacy means all larvae are killed, 0% efficacy means no larvae are killed.

[5] = test system: Nippostrongylus brasiliensis; experiment: Nippostrongylus brasiliensis (NIPOBR) assay, acetylcholine esterase readout; details: 10 ppm (10 μg/ml), adult worms, read-out: activity (reduction of AChE compared to negative control)
Procedure: Adult Nippostrongylus brasiliensis were washed with saline buffer containing 100 U/ml penicillin, 0.1 mg/ml streptomycin and 2.5 μg/ml amphotericin B. Test compounds were dissolved in DMSO and worms were incubated in medium in a final concentration of 10 μg/ml (10 ppm). An aliquot of the medium was used to determine the acetylcholine esterase activity in comparison to a negative control. The principle of measuring acetylcholine esterase as readout for anthelmintic activity was described in Rapson et al (1986) and Rapson et al (1987).

SMILES: O=C(NCC(F)c1ccc(-c2ccc(C(F)(F)F)nc2)cc1Cl)c1ccccc1C(F)(F)F (stereo not drawn) [Example 1-70]
- EC50 [1]: < 5 µg/mL
- mortality at 20 ppm [2]: 100%
- pest or weed control at 20 ppm [3]: 100%
- mortality at 20 ppm [4]: 90%
- inhibition at 10 ppm [5]: ≥ 60%

SMILES: O=C(NCC(F)c1ccc(-c2ccc(Cl)nc2)cc1Cl)c1ccccc1C(F)(F)F (stereo not drawn) [Example 1-73, N-{2-[2-chloro-4-(6-chloropyridin-3-yl)phenyl]-2-fluoroethyl}-2-(trifluoromethyl) benzamide]
- EC50 [1]: < 5 µg/mL
- mortality at 20 ppm [2]: 100%
- pest or weed control at 20 ppm [3]: 100%
- mortality at 20 ppm [4]: 100%
- inhibition at 10 ppm [5]: ≥ 60%

SMILES: O=C(NCC(F)c1ccc(-c2ccc(F)nc2)cc1Cl)c1ccccc1C(F)(F)F (stereo not drawn) [Example 1-74]
- EC50 [1]: < 5 µg/mL
- mortality at 20 ppm [2]: 100%
- pest or weed control at 20 ppm [3]: 90%
- mortality at 20 ppm [4]: 100%
- Emax at 0.8 ppm [4]: 100%
- Emax at 4 ppm [4]: 100%
- Emax at 20 ppm [4]: 100%
- inhibition at 10 ppm [5]: ≥ 60%

SMILES: O=C(NCC(F)c1ccc(-c2cncc(Cl)c2)cc1Cl)c1ccccc1C(F)(F)F (stereo not drawn) [Example 1-77]
- EC50 [1]: < 5 µg/mL
- mortality at 20 ppm [2]: 100%
- mortality at 20 ppm [4]: 100%
- inhibition at 10 ppm [5]: ≥ 60%

SMILES: O=C(NCC(F)c1ccc(-c2ccnc(F)c2)cc1Cl)c1ccccc1C(F)(F)F (stereo not drawn) [Example 1-78]
- EC50 [1]: < 5 µg/mL
- mortality at 20 ppm [2]: 100%
- mortality at 20 ppm [4]: 100%
- inhibition at 10 ppm [5]: ≥ 60%

SMILES: O=C(NCC(F)(F)c1ccc(-n2cc(C(F)(F)F)cn2)cc1Cl)c1cccnc1C(F)(F)F [Example 1-89]
- EC50 [1]: < 5 µg/mL
- mortality at 20 ppm [2]: 100%
- pest or weed control at 20 ppm [3]: 100%
- mortality at 20 ppm [4]: 100%
- inhibition at 10 ppm [5]: ≥ 60%

SMILES: O=C(NCC(F)(F)c1ccc(-c2ccc(F)nc2)cc1Cl)c1ccccc1C(F)(F)F [Example 1-93, N-[2-[2-chloro-4-(6-fluoro-3-pyridyl)phenyl]-2,2-difluoro-ethyl]-2-(trifluoromethyl)benzamide]
- EC50 [1]: < 5 µg/mL
- mortality at 20 ppm [2]: 100%
- pest or weed control at 20 ppm [3]: 100%
- mortality at 20 ppm [4]: 100%
- Emax at 0.8 ppm [4]: 100%
- Emax at 4 ppm [4]: 100%
- Emax at 20 ppm [4]: 100%
- inhibition at 10 ppm [5]: ≥ 60%

SMILES: CC(F)(CNC(=O)c1ccccc1Cl)c1ccc(-c2cncc(F)c2)cc1Cl (stereo not drawn) [Example 1-99]
- EC50 [1]: < 5 µg/mL
- mortality at 20 ppm [2]: 100%
- mortality at 20 ppm [4]: 100%
- inhibition at 10 ppm [5]: ≥ 60%

SMILES: CC(F)(CNC(=O)c1ccccc1Br)c1ccc(-c2cncc(F)c2)cc1Cl (stereo not drawn) [Example 1-100]
- EC50 [1]: < 5 µg/mL
- mortality at 20 ppm [2]: 100%
- mortality at 20 ppm [4]: 100%
- inhibition at 10 ppm [5]: ≥ 60%

SMILES: O=C(NCC(F)(F)c1ccc(-c2ccc(F)nc2)cc1F)c1ccccc1C(F)(F)F [Example 1-106]
- mortality at 20 ppm [2]: 100%
- pest or weed control at 20 ppm [3]: 90%
- mortality at 20 ppm [4]: 100%
- inhibition at 10 ppm [5]: ≥ 60%
